We go through 27 compounds from patent publication US11299512B2 (priority 2016, dated 2022).

Like-named read-outs stand apart in the source and are kept apart here.

The test concerns THP1 luciferase reporter cells. Briefly: cells. The format is cell-based.
Where [1] appears, read: Homo sapiens, THP-1, 16 h, read-out: THP1-ISG-Luc with PFO, EC50.
The mark [2] stands for this setting: Homo sapiens, THP-1, 16 h, read-out: THP-ISG-Luc without PFO, EC50.
[3] abbreviates: 16 hours, read-out: THP1-ISG-Luc with PFO, EC50.
Setting [4] is: 16 hours, read-out: THP-ISG-Luc without PFO, EC50.

As to `BP1(=O)OC[C@H]2O[C@@H](n3cnc4c(N)ncnc43)C(O)[C@H]2OP(=O)(O)OC[C@H]2O[C@@H](n3cnc4c(=O)[nH]c(N)nc43)[C@@H](O1)C2O` (single isomer, unassigned) [Example E25], the EC50 is below 100 nM under setting [1] and below 30000 nM under setting [2].
On the same counts, the results for `Nc1nc2c(ccn2[C@@H]2O[C@@H]3COP(=O)(O)OC4C(O)[C@H](n5ccc6c(N)ncnc65)O[C@@H]4COP(=O)(O)OC2C3O)c(=O)[nH]1` (stereo in doubt) [EA1] are 100 to 1000 nM and above 100000 nM.
Consider `Nc1nc2c(ncn2[C@@H]2O[C@@H]3COP(=O)(O)OC4C(O)[C@H](n5cnc6c(N)ncnc65)O[C@@H]4COP(=O)(O)OC2C3OCC(F)(F)F)c(=O)[nH]1` (stereo in doubt) [EA2], for which the EC50 under setting [1] is below 100 nM and the EC50 under setting [2] is below 30000 nM.
For `BP1(=O)OC[C@H]2O[C@@H](n3cnc4c(=O)[nH]c(N)nc43)C(OP(=O)(O)OC[C@H]3O[C@@H](n4cnc5c(N)ncnc54)C(O)C3O1)C2O` (stereo in doubt) [EA10], the EC50 under setting [1] was below 100 nM and the EC50 under setting [2] is below 30000 nM.
For `BP1(=O)OC[C@H]2O[C@@H](n3cnc4c(=O)[nH]c(N)nc43)[C@@H](OP(B)(=O)OC[C@H]3O[C@@H](n4cnc5c(N)ncnc54)[C@@H](O)C3O1)C2O` (stereo in doubt) [EA11] the same measures were below 100 nM and below 30000 nM.
As for `Nc1nc2c(ccn2[C@@H]2O[C@@H]3COP(=O)(O)OC4C(O)[C@H](n5cnc6c(N)ncnc65)O[C@@H]4COP(=O)(S)OC2C3O)c(=O)[nH]1` (stereo in doubt) [EB3], the EC50 reads like this: under setting [1], below 100 nM; under setting [2], below 30000 nM.
For `Nc1nc2c(ccn2[C@@H]2O[C@@H]3COP(=O)(O)OC4C(O)[C@H](n5cnc6c(NCCO)ncnc65)O[C@@H]4COP(=O)(S)OC2C3O)c(=O)[nH]1` (stereo in doubt) [EB5] the same measures were 100 to 1000 nM and above 100000 nM.
For `Nc1nc2c(ncn2[C@@H]2O[C@@H]3COP(=O)(O)OC4C(O)[C@H](n5ccc6c(N)ncnc65)O[C@@H]4COP(=O)(O)OC2C3OCC(F)(F)F)c(=O)[nH]1` (stereo in doubt) [EC3] the same measures were 100 to 1000 nM and below 30000 nM.
For `COC1C2OP(=O)(O)OC[C@H]3O[C@@H](n4cnc5c(=O)[nH]c(N)nc54)C(OP(=O)(O)OC[C@H]2O[C@H]1n1cnc2c(N)ncnc21)C3OCC(F)(F)F` (stereo in doubt) [EC10] the same measures were above 1000 nM and above 100000 nM.
On to `Nc1nc2c(ncn2[C@@H]2O[C@@H]3COP(=O)(O)OC4C(O)[C@H](n5cnc6c(N)ncnc65)O[C@@H]4COP(=O)(O)OC2C3CCO)c(=O)[nH]1` (stereo in doubt) [EC12], for which the EC50 under setting [1] was below 100 nM and the EC50 under setting [2] is below 30000 nM.
In the case of `Nc1nc2c(ncn2[C@@H]2O[C@@H]3COP(=O)(O)OC4C(O)[C@@H](COP(=O)(O)OC2C3OCC(F)(F)F)O[C@H]4n2cnc3c(N)ncnc32)c(=O)[nH]1` (stereo in doubt) [EC13], the EC50 by setting is: under setting [1], 100 to 1000 nM; under setting [2], below 30000 nM.
For `Nc1nc2c(ncn2[C@@H]2O[C@@H]3COP(=O)(O)OC4C[C@H](n5ccc6ccccc65)O[C@@H]4COP(=O)(O)OC2C3OCC(F)(F)F)c(=O)[nH]1` (stereo in doubt) [EC16] the same measures were above 1000 nM and above 100000 nM.
On the same counts, the results for `Nc1nc2c(ncn2[C@@H]2O[C@@H]3COP(=O)(O)OC4C[C@H](c5cccc6ccccc56)O[C@@H]4COP(=O)(O)OC2C3OCC(F)(F)F)c(=O)[nH]1` (stereo in doubt) [EC19] are above 1000 nM and above 100000 nM.
Take `Nc1nc2c(ncn2[C@@H]2O[C@@H]3COP(=O)(O)OC4C(O)[C@H](n5cnc6c(N)ncnc65)O[C@@H]4CNc4c(c(=O)c4=O)NC2C3O)c(=O)[nH]1` (stereo in doubt) [EC22]: the EC50 is, setting by setting: under setting [1], above 1000 nM; under setting [2], above 100000 nM.
On the same counts, the results for `CCCC1C2OP(=O)(O)OC[C@H]3O[C@@H](n4cnc5c(N)ncnc54)C(O)C3OP(=O)(O)OC[C@H]1O[C@H]2n1cnc2c(=O)[nH]c(N)nc21` (stereo in doubt) [EC24] are below 100 nM and below 30000 nM.
On the same counts, the results for `Nc1nc2c(ncn2[C@@H]2O[C@@H]3COP(=O)(O)OC4C(O)[C@H](n5cnc6c5ncn5ccnc65)O[C@@H]4COP(=O)(O)OC2C3OCC(F)(F)F)c(=O)[nH]1` (stereo in doubt) [EC26] are 100 to 1000 nM and above 100000 nM.
`Nc1nc2c(ncn2[C@@H]2O[C@@H]3COP(=O)(O)OC4C(O)[C@H](n5cnc6c(N)ncnc65)O[C@@H]4COP(=O)(O)OC2C3O)c(=O)[nH]1` (stereo in doubt) [Example E1]: the EC50 is below 100 nM under setting [1] and below 30000 nM under setting [2].
On the same counts, the results for `COC1C2OP(=O)(O)OC[C@H]3O[C@@H](n4cnc5c(N)ncnc54)C(O)C3OP(=O)(O)OC[C@H]1O[C@H]2n1cnc2c(=O)[nH]c(N)nc21` (stereo in doubt) [Example E3] are below 100 nM and below 30000 nM.
On the same counts, the results for `C#CCOc1nc(N)nc2c1ncn2[C@@H]1O[C@@H]2COP(=O)(O)OC3C(O)[C@H](n4cnc5c(N)ncnc54)O[C@@H]3COP(=O)(O)OC1C2O` (stereo in doubt) [Example E4] are below 100 nM and below 30000 nM.
For `Nc1nc2c(ncn2[C@@H]2O[C@@H]3COP(=O)(O)OC4C(O)[C@H](n5ccc6c(N)ncnc65)O[C@@H]4COP(=O)(O)OC2C3O)c(=O)[nH]1` (stereo in doubt) [Example E5] the same measures were above 1000 nM and above 100000 nM.
Take `C#CCOC1[C@H]2OP(=O)(O)OC[C@H]3O[C@@H](n4cnc5c(=O)[nH]c(N)nc54)[C@@H](OP(=O)(O)OC[C@H]2O[C@H]1n1cnc2c(N)ncnc21)C3O` (stereo partly drawn) [EA3]: the EC50 by setting is: under setting [1], above 1000 nM; under setting [2], above 100000 nM.
As to `Nc1ncnc2c1ccn2[C@@H]1O[C@@H]2COP(=O)(S)OC3C(O)[C@@H](COP(=O)(O)OC2C1O)O[C@H]3n1ccc2c(N)ncnc21` (stereo partly drawn) [EC6], the EC50 under setting [1] is above 1000 nM and the concentration giving a half-maximal response (EC50) under setting [2] is above 100000 nM.
As to `Nc1ncnc2c1ccn2[C@@H]1O[C@@H]2COP(=O)(S)OC3C(O)[C@@H](COP(=O)(O)OC2C1O)O[C@H]3n1ccc2c(N)ncnc21` (stereo partly drawn) [EC7], the EC50 under setting [3] was above 1000 nM and the EC50 under setting [4] was above 100000 nM.
In the case of `Nc1nc2c(ncn2[C@@H]2O[C@@H]3COP(=O)(S)OC4C(O)[C@H](n5nnc6c(N)ncnc65)O[C@@H]4COP(=O)(S)OC2C3O)c(=O)[nH]1` (stereo partly drawn) [Example E19], the EC50 under setting [1] was above 1000 nM and the EC50 under setting [2] was above 100000 nM.
`Nc1nc2c(ccn2[C@@H]2O[C@@H]3COP(=O)(S)OC4[C@@H](COP(=O)(S)O[C@H]2C3O)O[C@@H](n2ccc3c(N)ncnc32)[C@H]4O)c(=O)[nH]1` (stereo partly drawn) [Example E23]: the EC50 is, setting by setting: under setting [1], below 100 nM; under setting [2], below 30000 nM.
As for `Nc1nc2c(ncn2[C@@H]2O[C@@H]3COP(=O)(O)O[C@@H]4C(O)[C@H](n5cnc6c(N)ncnc65)O[C@@H]4COP(=O)(N4CCOCC4)OC2[C@H]3O)c(=O)[nH]1` (stereo partly drawn) [Example E24], the EC50 is, setting by setting: (Homo sapiens, THP-1, 16 hours, read-out: THP1-ISG-Luc with PFO, EC50) 100 to 1000 nM; (Homo sapiens, THP-1, 16 hours, read-out: THP-ISG-Luc without PFO, EC50) below 30000 nM.
With EC23, the EC50 reads like this: under setting [3], above 1000 nM; under setting [4], above 100000 nM.
